Measurements from patent publication US5093337A, “Substituted derivatives of 20,21-dinoreburnamenine, their use as medicaments and the pharmaceutical compositions containing them” (Roussel Uclaf, priority 1987, dated 1992).

Experiments:
[1] = Test for hypobar anoxemia in a mouse (survival time); format: in vivo; settings: 10 mg/kg intraperitoneal, 60 minutes before the test; 600 mmHg depression; relative to control mice
Procedure: 3) Test for hypobar anoxemia in a mouse
This consists of measuring for a maximum duration of 3 minutes the survival time of mice placed in a 2 liter chamber in which a 600 mmHg depression is carried out. Mice deprived of food for 6 hours are used. The products are administered at a dose of 10 mg/kg by intraperitoneal route in a volume of 0.2 ml/10 g 60 minutes before the test.
The increase in survival time is noted, expressed as a percentage of the animals treated in relation to the control animals, submitted to the same conditions.

[2] = tested on: adrenergic alpha2 receptors; test: Affinity for adrenergic alpha2 receptors (inhibition of specific 3H rauwolscine fixation, rat cortex); format: binding, rat (male; brain cortices); settings: from CD (phentolamine) and CX (product) inhibiting 50% of specific fixation of 3H rauwolscine 0.15 nM, 25° C., 45 minutes
Procedure: 1) Affinity for adrenergic alpha2 receptors:
10 cortices removed from the brains of male rats weighing on average 150 g are homogenized in 90 ml of 0.32M sucrose. After centrifuging 1,000 g of the homogenized mixture for 10 minutes at 0° C., the supernatant is centrifuged at 30,000 g for 10 minutes at 0°/+4° C. The deposit is put in suspension in 240 ml of buffer TrisHCl 50 mM pH 7.7, and centrifuged at 30,000 g for 15 minutes at 0°/+4° C. The new deposit obtained is put in suspension in 480 ml of buffer NaKPO4 pH 7.4 50 mM.
2 ml of suspension is then incubated for 45 minutes at 25° C. in the presence of ^3 H rauwolscine at a 0.15 nM concentration:
ii) with increasing concentrations of the product under test or,
iii) in order to determine the non-specific fixation,
with non-radioactive phentolamine at a 10^-5 M concentration.
The incubated suspensions are filtered on Whatman GF/C and the filters are washed three times with 5 ml of buffer NaKPO4 pH 7.4 at 0° C. The radioactivity of the filters is measured by liquid scintillation.
The affinity of the product tested for adrenergic alpha2 receptors is given in relation to the phentolamine as a reference product.
CD=concentration of phentolamine inhibiting 50% of the specific fixation of ^3 H rauwolscine;
CX=concentration of the product under test inhibiting 50% of the specific fixation of ^3 H rauwolscine.
The relative affinity is given by the relation: [formula]

[3] = Asphyxic anoxemia (latency time for disappearance of the ECoG); format: in vivo, Sprague Dawley (Charles River) male rat; settings: 10 mg/kg intravenous, 3 minutes before asphyxia; rat; read-out: % of variation of the latency time for disappearance of the ECoG after asphyxia
Procedure: The test is carried out using a Sprague Dawley (Charles River) male rat anaesthetized with ethyl ether, immobilized (tube curare 1 mg/kg I.V.) and artificially ventilated with air. The electrocorticogram (ECoG) and the arterial pressure are recorded. The rectal temperature is maintained at around 36° C. and the level of carbon dioxide in the blood is maintained between 35 and 40 torr. The products are administered at a dose of 10 mg/kg by intravenous route in a volume of 1 ml/kg 3 minutes before asphyxia obtained by stopping the artificial respiration. The latency time for the disappearance of the ECoG is measured.

[4] = Anti-amnesic effect in a passive avoidance (electric shock treatment amnesia); format: in vivo; settings: 2 mg/kg by oral route; rat
Source text: Anti-Amnesic Effect in a Passive Avoidance
Rats are placed individually in the lighted compartment of a box having two compartments, the other one being dark. They take refuge immediately in the dark compartment and upon their entry the rats receive an electric shock (1 mA/5 sec) from the grated floor. […] In the second group, the electric shock is immediately followed by the application of an amnesic electric shock treatment (60 mA, 0.6 ms, 0.6 s) (electric shock treatment control group). The third group is identical to the second, but the electric shock treatment is immediately followed by the administration of the compound under test (treated group). Twenty-four hours later, the animals are replaced in the lighted compartment of the box and the latency time of entry into the dark compartment is measured (up to 300 sec. maximum). For the controls, this time is close to 300 sec. The electric shock treatment controls on the other hand move into the dark compartment much more rapidly (amnesic effect).

[5] = Test for spontaneous alternation after septal cholinergic injury; format: in vivo; settings: range of doses from 1 to 10 mg/kg i.p., 30 minutes before each session; rat
Source text: 4) Test for spontaneous alternation after septal cholinergic injury
The behaviour of spontaneous alternation is an essential characteristic of the behavioural performance of the rat, which, put in a situation of choice between a familiar stimulus and a new stimulus, will choose the latter. Thus, in the case of a labyrinth Y, the animal will preferably choose an arm which has not yet been explored as opposed to an arm that he has just visited (spontaneous alternation). This faculty of discrimination between the "familiar" and the "new" implies the coming into play of a form of memory, the Short Term Memory or Work Memory. The performances of spontaneous alternation allow therefore an evaluation of the capacity of this type of memory.
The method used consists of creating a mnesic deficit in the rat, by lesion of the septo-hippocampic cholinergic system, and of researching whether the product under test is capable of reversing this deficit. In the present case, this deficit is evaluated in a spontaneous alternation behaviour; the lesioned animal has alternation performances of about 50%, because it carries out its choices by chance.
Each experiment comprises a control-vehicle group, a lesioned-vehicle group and one or two lesioned groups receiving the product under test. […]

[6] = Test for anti-depressive activity (forced swimming, duration of immobility); format: in vivo, Sprague Dawley rats; settings: ip, 5 min; i.p. 24, 5 and half an hour before the test; immobility over 5 minutes; rat; read-out: AD50 (the source's name)
Procedure: 5) Test for anti-depressive activity
The tests are carried out on groups of 5 Sprague Dawley rats. The unaffected animals are placed for 15 minutes in a vertical cylinder of plexiglass (diameter: 18 cm, height: 40 cm) containing water at 25° C. at a height of 15 cm (initial swimming test). They are then dried for 15 minutes in a chamber heated to 32° C.; 24 hours later, they are replaced in the cylinder, filled with water, and the total duration of the periods of immobility is measured over 5 minutes.
The compound is administered i.p. successively 24, 5 and half an hour before the test. The first administration takes place immediately after the initial swimming test, just before the animals are replaced in their breeding box.
The averages of the treated groups are compared with those of the control group using Dunnett's test.

Compound | RAL (relative affinity, in relation to phentolamine as reference product) [2] | change in vivo at 10 mg/kg [3] [%] | other results
O=[N+]([O-])c1cccc2c1c1c3n2C(O)CC2CCCN(CC1)C32 (racemic) [Example 40, [(±) (16alpha)]-9-nitro-14,15dihydro-20,21-dinoreburnamenin-14-ol] | – | – | % of increase in survival time [1]: 22%
Clc1ccc2c3c4n(c2c1)C=C[C@H]1CCCN(CC3)[C@H]41 (relative stereo) [Example 2, [(±) (16alpha)]-11-chloro-20,21-dinoreburnamenine] | 110 | 43 | –
O[C@@H]1C[C@H]2CCCN3CCc4c(n1c1ccc(Cl)cc41)[C@H]23 (relative stereo) [Example 4, [(±) (14alpha, 16alpha)]-10-chloro-14,15-dihydro-20,21-dinoreburnamenin-14-ol] | 35 | – | –
Clc1ccc2c(c1)c1c3n2C=C[C@H]2CCCN(CC1)[C@H]32 (relative stereo) [Example 5, [(±) 16alpha]-10-chloro-20,21-dinoreburnamenine] | 55 | 26 | –
Cc1ccc2c3c4n(c2c1)[C@H](O)C[C@H]1CCCN(CC3)[C@H]41 (relative stereo) [Example 8, [(±) (14alpha, 16alpha)]-14,15-dihydro-11-methyl-20,21-dinoreburnamenin-14-ol] | – | 37 | –
Cc1ccc2c3c4n(c2c1)C=C[C@H]1CCCN(CC3)[C@H]41 (relative stereo) [Example 10, [(±) (16alpha)]-11-methyl-20,21-dinoreburnamenine] | 160 | 47 | reversal of the effect of an electric shock treatment (passive avoidance) [4]: reverses the anti-amnesic effect of an electric shock treatment; reversal of the mnesic deficit caused by the septal cholinergic lesion (spontaneous alternation) [5]: reverses the mnesic deficit caused by the septal cholinergic lesion; ED50 [6]: 13 mg/kg
Cc1ccc2c3c4n(c2c1)CC[C@H]1CCCN(CC3)[C@H]41 (relative stereo) [Example 12, [(±) (16alpha)]-14,15-dihydro-11-methyl-20,21-dinor-eburnamenine] | 39 | 18 | –
Cc1ccc2c(c1)c1c3n2C=C[C@H]2CCCN(CC1)[C@H]32 (relative stereo) [Example 16, [(±) (16alpha)]-10-methyl-20,21-dinoreburnamenine] | 136 | 22 | –
Cc1ccc2c(c1)c1c3n2CC[C@H]2CCCN(CC1)[C@H]32 (relative stereo) [Example 18, [(±) (16alpha)]-14,15-dihydro-10-methyl-20,21-dinoreburnamenine] | 39 | – | –
COc1ccc2c3c4n(c2c1)[C@@H](O)C[C@H]1CCCN(CC3)[C@H]41 (relative stereo) [Example 21, [(±) (14beta, 16alpha)]-14,15-dihydro-11-methoxy-20,21-dinoreburnamenin-14-ol] | – | 30 | –
COc1ccc2c3c4n(c2c1)[C@H](O)C[C@H]1CCCN(CC3)[C@H]41 (relative stereo) [Example 22, [(±) (14alpha, 16alpha)]-14,15-dihydro-11-methoxy-20,21-dinoreburnamenin-14-ol] | – | 18 | –
COc1ccc2c3c4n(c2c1)C=C[C@H]1CCCN(CC3)[C@H]41 (relative stereo) [Example 24, [(±) 16alpha]-11-methoxy-20,21-norburnamenine] | – | 35 | –
COc1ccc2c3c4n(c2c1)CC[C@H]1CCCN(CC3)[C@H]41 (relative stereo) [Example 25, [(±) (16alpha)]-14,15-dihydro-11-methoxy-20,21-dinoreburnamenine] | – | 20 | –
COc1ccc2c(c1)c1c3n2[C@H](O)C[C@H]2CCCN(CC1)[C@H]32 (relative stereo) [Example 28, [(±) (14alpha, 16alpha)]-14,15-dihydro-10-methoxy-20,21-dinoreburnamenin-14-ol] | – | 35 | –
COc1ccc2c(c1)c1c3n2C=C[C@H]2CCCN(CC1)[C@H]32 (relative stereo) [Example 29, [(±) (16alpha)]-10-methoxy-20,21-dinoreburnamenine] | – | 25 | –
O=[N+]([O-])c1ccc2c3c4n(c2c1)C=C[C@H]1CCCN(CC3)[C@H]41 (relative stereo) [Example 39, [(±) (16alpha)]-11-nitro-20,21-dinoreburnamenine] | – | – | % of increase in survival time [1]: 14%
O=[N+]([O-])c1cccc2c1c1c3n2C=C[C@H]2CCCN(CC1)[C@H]32 (relative stereo) [Example 41, [(±) (16alpha)]-9-nitro-20,21-dinoreburnamenine] | – | – | % of increase in survival time [1]: 13%
